Experiments:
S1PR1 = target: T1, S1PR1 (Homo sapiens, UniProt P21453); assay: In vitro S1PR1 agonistic activity (PathHunter cell line, chemiluminescence); assay type: cell-based; conditions: for Emax: % activity relative to maximum control ligand; for EC50: agonist mode, 90-180 minutes at 37° C.
T1 construct: expressed in transfected cells
Procedure: Test Embodiment 1: In Vitro Evaluation of the Agonistic Activity of the Compounds of the Present Disclosure on S1PR1
Experimental Objective: To Detect the Agonistic Activity of Compounds on S1PR1
• 1. A PathHunter cell line was thawed according to standard procedures; • 2. the cells were inoculated in a 20 μL 384-well microplate and incubated at 37° C. for appropriate time. II. Agonist • 1. For agonist determination, cells were incubated with samples to be tested to induce a reaction; • 2. a storage solution to be tested was 5-fold diluted into a buffer; • 3. 5 μL of the 5-fold dilution was added to the cells and incubated at 37° C. for 90-180 minutes. The vehicle concentration was 1%. III. Signal Detection • 1. 12.5 μL or 15 μL of PathHunter detection reagent at a volume ratio of 50% was added at a time, and then incubated at room temperature for 1 hour to generate a detection signal; • 2. the microplate was read with a PerkinElmer Envision™ instrument for chemiluminescent signal detection. IV. Data Analysis • 1. Activity analysis of the compound was carried out by using CBIS data analysis kit (ChemInnovation, CA); • 2. Calculation formula: % activity=100%×(average test sample RLU−average vehicle RLU)/(average maximum control ligand−average vehicle RLU)

[1] = Pharmacokinetic evaluation in CD-1 mice (intravenous injection and oral administration); assay type: in vivo; conditions: mouse, male, plasma
Procedure: Test Embodiment 3: Pharmacokinetic Evaluation of Compound in Mice
Experimental Objective: To Test the Pharmacokinetics of the Compound in CD-1 Mice
CD-1 mice (male, 20-40 g, 6-10 weeks old, Shanghai BK)
(§1) The standard protocol was used to test the pharmacokinetic characteristics of rodents after intravenous injection and oral administration of the compound. In the experiment, the candidate compound was prepared into a clear solution, and administrated to two mice by single intravenous injection and oral administration. The vehicle for intravenous injection was a 5:95 DMSO and 10% hydroxypropyl β-cyclodextrin aqueous solution, and the vehicle for oral administration was a 0.5% w/v methylcellulose and 0.2% w/v tween 80 aqueous solution. Whole blood samples within 24 hours were collected, centrifuged at 3200 g for 10 minutes, and the supernatant was separated to obtain plasma samples. Four times the volume of acetonitrile solution containing internal standard was added thereto to precipitate protein. The mixture was centrifuged, and the supernatant was taken, and an equal volume of water was added thereto. Then the mixture was centrifuged and the supernatant was taken for injection. The blood drug concentration was quantitatively analyzed by LC-MS/MS analysis method, and pharmacokinetic parameters, such as peak concentration, tissue distribution, clearance rate, half-life, area under the drug-time curve and bioavailability, were calculated.

[2] = Pharmacokinetic evaluation in SD rats (intravenous injection and oral administration); assay type: in vivo; conditions: Sprague-Dawley, plasma, SD rat, male
Procedure: Test Embodiment 2: Pharmacokinetic Evaluation of Compound in Rats
Experimental Objective: To Test the Pharmacokinetics of the Compound in SD Rats
Sprague Dawley rat (male, 200-300 g, 7-9 weeks old, Shanghai SLAC)
as §1, with “A standard” for “The standard”, “to rats” for “to two mice”, “at 3000” for “at 3200”, “for 15” for “for 10”, “concentration, clearance rate,” for “concentration,”, “distribution,” for “distribution, clearance rate,”

T1 sequence (P21453 whole entry): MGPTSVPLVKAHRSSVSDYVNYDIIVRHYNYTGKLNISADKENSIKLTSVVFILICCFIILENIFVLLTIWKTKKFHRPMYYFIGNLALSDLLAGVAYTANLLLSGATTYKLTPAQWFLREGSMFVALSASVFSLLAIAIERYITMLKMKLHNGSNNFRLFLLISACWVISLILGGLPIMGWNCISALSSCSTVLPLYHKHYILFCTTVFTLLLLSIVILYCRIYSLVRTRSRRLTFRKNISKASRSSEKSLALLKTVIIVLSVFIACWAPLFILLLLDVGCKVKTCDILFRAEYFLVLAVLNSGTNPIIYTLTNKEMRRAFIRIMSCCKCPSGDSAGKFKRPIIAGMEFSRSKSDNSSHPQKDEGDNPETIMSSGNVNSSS

CC(C)Oc1ncc(-c2nc(-c3cccc4c3CCC43CC(=O)N(CCC(=O)O)C3)no2)cc1C#N (centres unmarked) [Compound 9]
Emax (S1PR1): 104% | EC50 (S1PR1): 0.613 nM

CC(C)Oc1ncc(-c2nc(-c3cccc4c3CCC43CCN(C4CC(C(=O)O)C4)C3)no2)cc1C#N (centres unmarked) [Compound 10]
Emax (S1PR1): 92% | EC50 (S1PR1): 0.474 nM

CC(C)Oc1ncc(-c2ncc(-c3cccc4c3CCC43CC(=O)N(CCO)C3)cn2)cc1C#N (centres unmarked) [Compound 6]
Emax (S1PR1): 78.5% | EC50 (S1PR1): 7.1 nM

CC(C)Oc1ncc(-c2ncc(-c3cccc4c3CCC43CC(=O)N(CCO)C3)o2)cc1C#N (centres unmarked) [Compound 5]
Emax (S1PR1): 63.5% | EC50 (S1PR1): 24.3 nM

CC(C)Oc1ncc(-c2nsc(-c3cccc4c3CCC43CC(=O)N(CCO)C3)n2)cc1C#N (centres unmarked) [Compound 4]
Emax (S1PR1): 67.6% | EC50 (S1PR1): 20.9 nM

CC(C)Oc1ncc(-c2ncc(-c3cccc4c3CCC43CC(=O)N(CCO)C3)s2)cc1C#N (centres unmarked) [Compound 7]
Emax (S1PR1): 88.1% | EC50 (S1PR1): 2.84 nM

CC(C)Oc1ncc(-c2nc(-c3cccc4c3CCC43CC(=O)N(CCO)C3)no2)cc1C#N (centres unmarked) [Compound 1]
Cmax ([1]; intravenous 0.5 mg/kg / oral 2.0 mg/kg, read-out: Peak concentration Cmax): 2830 ng/mL | AUC(0-t) ([1]; PO 2.0 mg/kg, read-out: Area under the drug-time curve AUC0-last PO): 21.3 µM·h | half-life ([1]; PO 2.0 mg/kg, read-out: Half-life T1/2 (PO) (converted)): 3.5 h | clearance ([1]; intravenous 0.5 mg/kg / oral 2.0 mg/kg, read-out: Clearance rate CL): 3.42 mL/min/kg | Vd ([1]; intravenous 0.5 mg/kg / oral 2.0 mg/kg, read-out: Tissue distribution Vdss): 0.902 L/kg | bioavailability ([1]; intravenous 0.5 mg/kg, oral 2.0 mg/kg, read-out: Bioavailability F): 100% | AUC(0-t) ([2]; PO 3.0 mg/kg, read-out: Area under the drug-time curve AUC0-last PO): 35.5 µM·h | half-life ([2]; PO 3.0 mg/kg, read-out: Half-life T1/2 (PO) (converted)): 7.22 h | clearance ([2]; intravenous 1.0 mg/kg / oral 3.0 mg/kg, read-out: Clearance rate CL): 1.66 mL/min/kg | Vd ([2]; intravenous 1.0 mg/kg / oral 3.0 mg/kg, read-out: Tissue distribution Vdss): 1.18 L/kg | bioavailability ([2]; intravenous 1.0 mg/kg, oral 3.0 mg/kg, read-out: Bioavailability F): 71.9% | Cmax ([2]; intravenous 1.0 mg/kg / oral 3.0 mg/kg, read-out: Peak concentration Cmax): 3100 ng/mL | Emax (S1PR1): 99.3% | EC50 (S1PR1): 0.134 nM

CC(C)Oc1ncc(-c2nnc(-c3cccc4c3CCC43CC(=O)N(CCO)C3)s2)cc1C#N (centres unmarked) [Compound 11]
Emax (S1PR1): 104% | EC50 (S1PR1): 6.12 nM

CC(C)Oc1ncc(-c2nc(-c3cccc4c3CCC43CC(=O)N(CC(=O)O)C3)no2)cc1C#N (centres unmarked) [Compound 8]
Emax (S1PR1): 110% | EC50 (S1PR1): 1.25 nM

CC(C)Oc1ncc(-c2nc(-c3cccc4c3CCC43CC(=O)N(CCO)C3)no2)cc1Br (centres unmarked) [Compound 3]
Emax (S1PR1): 62.8% | EC50 (S1PR1): 4.46 nM

— patent US12637448B2, “Tricyclic compounds and use thereof” (HELIOEAST PHARMACEUTICAL CO., LTD, priority 2020, dated 2026)
